Data from US20260199323A1, “LIGAND COMPOUNDS FOR E3 UBIQUITIN LIGASE, PROTEIN DEGRADERS DEVELOPED ON BASIS OF LIGAND COMPOUNDS, AND USES THEREOF” (GLUETACS THERAPEUTICS (SHANGHAI) CO., LTD., priority 2021, published 2026).
Read-outs that look alike come from different tables or passages of the source. One block for each compound: values may come before it.

Experiments:
SR = test: CCK-8 tumor cell proliferation, SR; assay type: cell-based, Human; conditions: Homo sapiens; Table 15, ALK inhibitor based; SR; read-out: IC50 inhibiting proliferation of tumor cells, SR
Summary of the method: (§1)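 Proliferation was measured by CCK-8. Plated cells received compound 24 h later at ten 5-fold dilutions beginning at 10 μM.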

MV-4-11 = test: CCK-8 tumor cell proliferation, MV-4-11; assay type: cell-based, Human; conditions: Homo sapiens, MV4-11, MV-4-11, read-out: IC50 inhibiting proliferation of tumor cells, MV-4-11
Method: (§2) The tumor cells used herein were cultured in a cell culture medium listed in table 4 at 37° C. in an incubator with 5% CO2. Prior to experimentation, all cells used were correctly identified by STR profiling, and tested negative for mycoplasma through routine screenings.
(§3) IC50 values of the compounds of the present disclosure (including the compounds in Tables 1 and 3, and compounds of examples) were measured using the Meilun Cell Counting Kit-8 kit from Dalian Meilun Biotech Co., Ltd. Assay details are as follows: tumor cells were seeded in a 96-well plate at a density listed in Table 5. After 24 h, 100 μL of the inoculated cells were treated with 0.5 μL of the compounds of the present disclosure (including the compounds in Tables 1 and 3, and compounds of examples) at 10 different successively decreasing concentrations (starting at the highest concentration of 10 μM; 5-fold serial dilutions). After the cells were treated with the compounds of the present disclosure for a period of time, the cell viability detection reagent was added to the culture medium for cell viability assessment according to the instructions provided with the CCK-8 kit. […] The growth inhibition of the compounds of the present disclosure on cells was plotted by Prism Graphpad software, and the IC50 values of the compounds of the present disclosure were calculated therefrom.

CCRF-CEM = test: CCK-8 tumor cell proliferation, CCRF-CEM; assay type: cell-based, Human; conditions: Homo sapiens; Table 19, IRAK4 inhibitor based; CCRF-CEM; read-out: IC50 inhibiting proliferation of tumor cells, CCRF-CEM
Summary of the method: as §1

Jurkat = test: CCK-8 tumor cell proliferation, Jurkat; assay type: cell-based, Human; conditions: Homo sapiens, Table 23, compared to Comparative Example compounds, read-out: Inhibitory activity (IC50, nM) against tumor cell proliferation, Jurkat
Method: as §2, §3

MM.1R = test: CCK-8 tumor cell proliferation, MM.1R; assay type: cell-based; conditions: read-out: Inhibitory activity (IC50, nM) against tumor cell proliferation, MM.1R
Method: as §2, §3

CAL-62 = test: CCK-8 tumor cell proliferation, CAL-62; assay type: cell-based, Human; conditions: Homo sapiens, CAL-62, read-out: Inhibitory activity (IC50, nM) against tumor cell proliferation, CAL-62
Summary of the method: as §1

[1] = Table 19, IRAK4 inhibitor based
[2] = Table 23, compared to Comparative Example compounds

Structure (SMILES): CCc1cc2c(cc1N1CCC(N3CCN(Cc4ccc5c(c4F)CN(C4CCC(=O)NC4=O)C5=O)CC3)CC1)C(C)(C)c1[nH]c3cc(C#N)ccc3c1C2=O (stereo not shown) [GT-03758, 8-(4-(4-((2-(2,6-dioxopiperidin-3-yl)-4-fluoro-1-oxoisoindolin-5-yl)methyl)piperazin-1-yl)piperidin-1-yl)-9-ethyl-6,6-dimethyl-11-oxo-6,11-dihydro-5H-benzo[b]carbazole-3-carbonitrile]
IC50 (SR): < 0.05 µM | IC50 (MV-4-11; Table 15, ALK inhibitor based): 0.1 to 0.5 µM

Structure (SMILES): CCc1cc2c(cc1N1CCC(N3CCN(Cc4ccc5c(c4)C(=O)N(C4CCC(=O)NC4=O)C5=O)CC3)CC1)C(C)(C)c1[nH]c3cc(C#N)ccc3c1C2=O (stereo not shown) [GT-03761, 8-(4-(4-((2-(2,6-dioxopiperidin-3-yl)-1,3-dioxoisoindolin-5-yl)methyl)piperazin-1-yl)piperidin-1-yl)-9-ethyl-6,6-dimethyl-11-oxo-6,11-dihydro-5H-benzo[b]carbazole-3-carbonitrile]
IC50 (SR): < 0.05 µM | IC50 (MV-4-11; Table 15, ALK inhibitor based): 1 to 5 µM

Structure (SMILES): COc1cc(N2CCN(Cc3ccc4c(c3)CN(C3CCC(=O)NC3=O)C4=O)CC2)ccc1Nc1ncc(Cl)c(Nc2ccccc2P(C)(C)=O)n1 (stereo not shown) [GT-03775, 3-(5-((4-(4-((5-chloro-4-((2-(dimethylphosphoryl)phenyl)amino)pyrimidin-2-yl)amino)-3-methoxyphenyl)piperazin-1-yl)methyl)-1-oxoisoindolin-2-yl)piperidine-2,6-dione]
IC50 (SR): < 0.05 µM | IC50 (MV-4-11; Table 15, ALK inhibitor based): 0.1 to 0.5 µM

Structure (SMILES): COc1cc(N2CCN(Cc3ccc4c(c3F)CN(C3CCC(=O)NC3=O)C4=O)CC2)ccc1Nc1ncc(Cl)c(Nc2ccccc2P(C)(C)=O)n1 (stereo not shown) [GT-03776, 3-(5-((4-(4-((5-chloro-4-((2-(dimethylphosphoryl)phenyl)amino)pyrimidin-2-yl)amino)-3-methoxyphenyl)piperazin-1-yl)methyl)-4-fluoro-1-oxoisoindolin-2-yl)piperidine-2,6-dione]
IC50 (SR): < 0.05 µM | IC50 (MV-4-11; Table 15, ALK inhibitor based): 0.1 to 0.5 µM

Structure (SMILES): COc1cc(N2CCN(Cc3cc4c(cc3F)C(=O)N(C3CCC(=O)NC3=O)C4)CC2)ccc1Nc1ncc(Cl)c(Nc2ccccc2P(C)(C)=O)n1 (stereo not shown) [GT-03777, 3-(5-((4-(4-((5-chloro-4-((2-(dimethylphosphoryl)phenyl)amino)pyrimidin-2-yl)amino)-3-methoxyphenyl)piperazin-1-yl)methyl)-6-fluoro-1-oxoisoindolin-2-yl)piperidine-2,6-dione]
IC50 (SR): < 0.05 µM | IC50 (MV-4-11; Table 15, ALK inhibitor based): 0.05 to 0.1 µM

Structure (SMILES): COc1cc(N2CCN(Cc3cc(F)c4c(c3)CN(C3CCC(=O)NC3=O)C4=O)CC2)ccc1Nc1ncc(Cl)c(Nc2ccccc2P(C)(C)=O)n1 (stereo not shown) [GT-03778, 3-(5-((4-(4-((5-chloro-4-((2-(dimethylphosphoryl)phenyl)amino)pyrimidin-2-yl)amino)-3-methoxyphenyl)piperazin-1-yl)methyl)-7-fluoro-1-oxoisoindolin-2-yl)piperidine-2,6-dione]
IC50 (SR): < 0.05 µM | IC50 (MV-4-11; Table 15, ALK inhibitor based): 0.1 to 0.5 µM

Structure (SMILES): COc1cc(N2CCN(Cc3cccc4c3CN(C3CCC(=O)NC3=O)C4=O)CC2)ccc1Nc1ncc(Cl)c(Nc2ccccc2P(C)(C)=O)n1 (stereo not shown) [GT-03779, 3-(4-((4-(4-((5-chloro-4-((2-(dimethylphosphoryl)phenyl)amino)pyrimidin-2-yl)amino)-3-methoxyphenyl)piperazin-1-yl)methyl)-1-oxoisoindolin-2-yl)piperidine-2,6-dione]
IC50 (SR): < 0.05 µM | IC50 (MV-4-11; Table 15, ALK inhibitor based): 0.1 to 0.5 µM

Structure (SMILES): O=C1CCC(N2Cc3cc(CCN4CCN(c5ccc([C@@H]6c7ccc(O)cc7CC[C@@H]6c6ccccc6)cc5)CC4)ccc3C2=O)C(=O)N1 (stereo partly drawn) [GT-04562, 3-(5-(2-(4-(4-((1R,2S)-6-hydroxy-2-phenyl-1,2,3,4-tetrahydronaphthalen-1-yl)phenyl)piperazin-1-yl)ethyl)-1-oxoisoindolin-2-yl)piperidine-2,6-dione]
IC50 (Jurkat): 100 to 500 nM | IC50 (MM.1R; [2]): 5000 to 10000 nM | IC50 (CAL-62; [2]): 1000 to 5000 nM

Structure (SMILES): Nc1ncnc2c1c(-c1ccc(Oc3ccccc3)cc1)nn2C1CCN(CCc2ccc3c(c2)CN(C2CCC(=O)NC2=O)C3=O)CC1 (stereo not shown) [GT-04563, 3-(5-(2-(4-(4-amino-3-(4-phenoxyphenyl)-1H-pyrazolo[3,4-d]pyrimidin-1-yl)piperidin-1-yl)ethyl)-1-oxoisoindolin-2-yl)piperidine-2,6-dione]
IC50 (Jurkat): 1000 to 5000 nM | IC50 (MM.1R; [2]): < 50 nM | IC50 (CAL-62; [2]): 5000 to 10000 nM

Structure (SMILES): O=C1CCC(N2Cc3cc(CCCN4CCN(c5ccc([C@@H]6c7ccc(O)cc7CC[C@@H]6c6ccccc6)cc5)CC4)ccc3C2=O)C(=O)N1 (stereo partly drawn) [GT-04564, 3-(5-(3-(4-(4-((1R,2S)-6-hydroxy-2-phenyl-1,2,3,4-tetrahydronaphthalen-1-yl)phenyl)piperazin-1-yl)propyl)-1-oxoisoindolin-2-yl)piperidine-2,6-dione]
IC50 (Jurkat): 100 to 500 nM | IC50 (MM.1R; [2]): 1000 to 5000 nM | IC50 (CAL-62; [2]): 1000 to 5000 nM

Structure (SMILES): Nc1ncnc2c1c(-c1ccc(Oc3ccccc3)cc1)nn2C1CCN(CCCc2ccc3c(c2)CN(C2CCC(=O)NC2=O)C3=O)CC1 (stereo not shown) [GT-04565, 3-(5-(3-(4-(4-amino-3-(4-phenoxyphenyl)-1H-pyrazolo[3,4-d]pyrimidin-1-yl)piperidin-1-yl)propyl)-1-oxoisoindolin-2-yl)piperidine-2,6-dione]
IC50 (Jurkat): 5000 to 10000 nM | IC50 (MM.1R; Table 23, given as number): > 10000 nM | IC50 (CAL-62; Table 23, given as number): > 10000 nM

Other lines, results leading:

IC50 (SR): 0.1 to 0.5 µM | IC50 (MV-4-11; Table 15, ALK inhibitor based): 1 to 5 µM
Structure (SMILES): COc1cc(N2CCN(Cc3ccc4c(c3)C(=O)N(C3CCC(=O)NC3=O)C4=O)CC2)ccc1Nc1ncc(Cl)c(Nc2ccccc2P(C)(C)=O)n1 (stereo not shown) [GT-03780, 5-((4-(4-((5-chloro-4-((2-(dimethylphosphoryl)phenyl)amino)pyrimidin-2-yl)amino)-3-methoxyphenyl)piperazin-1-yl)methyl)-2-(2,6-dioxopiperidin-3-yl)isoindoline-1,3-dione]

IC50 (MV-4-11; [1]): 0.1 to 0.5 µM
Structure (SMILES): Cc1cc(-c2nc(C(=O)Nc3cc4oc(N5CCN(Cc6ccc7c(c6F)CN(C6CCC(=O)NC6=O)C7=O)CC5)nc4nc3N3CC[C@@H](O)C3)co2)ccn1 (stereo partly drawn) [GT-03841, N-(2-(4-((2-(2,6-dioxopiperidin-3-yl)-4-fluoro-1-oxoisoindolin-5-yl)methyl)piperazin-1-yl)-5-((R)-3-hydroxypyrrolidin-1-yl)oxazolo[4,5-b]pyridin-6-yl)-2-(2-methylpyridin-4-yl)oxazole-4-carboxamide]

IC50 (MV-4-11; [1]): 0.1 to 0.5 µM
Structure (SMILES): Cc1cc(-c2nc(C(=O)Nc3cc4oc(N5CCN(Cc6cc7c(cc6F)C(=O)N(C6CCC(=O)NC6=O)C7)CC5)nc4nc3N3CC[C@@H](O)C3)co2)ccn1 (stereo partly drawn) [GT-03842, N-(2-(4-((2-(2,6-dioxopiperidin-3-yl)-6-fluoro-1-oxoisoindolin-5-yl)methyl)piperazin-1-yl)-5-((R)-3-hydroxypyrrolidin-1-yl)oxazolo[4,5-b]pyridin-6-yl)-2-(2-methylpyridin-4-yl)oxazole-4-carboxamide]

IC50 (MV-4-11; [1]): 0.05 to 0.1 µM | IC50 (CCRF-CEM): < 0.05 µM
Structure (SMILES): Cc1cc(-c2nc(C(=O)Nc3cc4oc(N5CCN(Cc6cc(F)c7c(c6)CN(C6CCC(=O)NC6=O)C7=O)CC5)nc4nc3N3CC[C@@H](O)C3)co2)ccn1 (stereo partly drawn) [GT-03843, N-(2-(4-((2-(2,6-dioxopiperidin-3-yl)-7-fluoro-1-oxoisoindolin-5-yl)methyl)piperazin-1-yl)-5-((R)-3-hydroxypyrrolidin-1-yl)oxazolo[4,5-b]pyridin-6-yl)-2-(2-methylpyridin-4-yl)oxazole-4-carboxamide]

IC50 (MV-4-11; [1]): 0.1 to 0.5 µM
Structure (SMILES): Cc1cc(-c2nc(C(=O)Nc3cc4oc(N5CCN(Cc6cccc7c6CN(C6CCC(=O)NC6=O)C7=O)CC5)nc4nc3N3CC[C@@H](O)C3)co2)ccn1 (stereo partly drawn) [GT-03844, N-(2-(4-((2-(2,6-dioxopiperidin-3-yl)-1-oxoisoindolin-4-yl)methyl)piperazin-1-yl)-5-((R)-3-hydroxypyrrolidin-1-yl)oxazolo[4,5-b]pyridin-6-yl)-2-(2-methylpyridin-4-yl)oxazole-4-carboxamide]

IC50 (MV-4-11; [1]): 0.5 to 1 µM
Structure (SMILES): Cc1cc(-c2nc(C(=O)Nc3cc4oc(N5CCN(Cc6ccc7c(c6)C(=O)N(C6CCC(=O)NC6=O)C7=O)CC5)nc4nc3N3CC[C@@H](O)C3)co2)ccn1 (stereo partly drawn) [GT-03845, N-(2-(4-((2-(2,6-dioxopiperidin-3-yl)-1,3-dioxoisoindolin-5-yl)methyl)piperazin-1-yl)-5-((R)-3-hydroxypyrrolidin-1-yl)oxazolo[4,5-b]pyridin-6-yl)-2-(2-methylpyridin-4-yl)oxazole-4-carboxamide]
